Results as given in publication PMC11618496, “SHIV remission in macaques with early treatment initiation and ultra long-lasting antiviral activity” (Nature Communications, 2024).
Several values for one entry are separate records, joined by “and”; a condition that tells them apart may be missing. Identical values can stand only once.

Assays:
[1] = Intracellular TFV-DP and FTC-TP in lymph node mononuclear cells and rectal tissues; conditions: lymph node mononuclear cells from axillary or inguinal lymph nodes
[2] = for median concentration in PBMCs during the entire treatment period: eART + VES group; for median (range) concentration in PBMCs, period of full adherence / median (range) concentration in PBMCs, period of suboptimal adherence: eART group; for median (range) concentration in PBMCs, period of full adherence: months 0–3.5, 24 h post-dosing, oral FTC/TAF; for median (range) concentration in PBMCs, period of suboptimal adherence: months 3.5 to 6
Method: (§1) RT-SHIV was selected for the study since it contains the HIVHXBc2 RT that is sensitive to RPV. RT-SHIV was obtained through the NIH AIDS Reagent Program, Division of AIDS, NIAID, NIH[17]–[19]. The stock was maintained in liquid nitrogen in individual 1 mL aliquots until use. […] CAB LA and RPV LA were obtained from ViiV Healthcare and Janssen, respectively. […] CAB LA (50 mg/kg) and RPV LA (200 mg/kg) were given intramuscularly once a month[27],[45]. The macaque used in the terminal PK study received CAB LA (50 mg/kg) and RPV LA (200 mg/kg) from Cabenuva®.
(§2) PBMCs were isolated from blood collected in BD Vacutainer® CPT™ Sodium Citrate Cell Preparation Tubes, and red blood cells were lysed with BioLegend RBC lysis buffer. Cell counts and viability were determined using a Guava Cell Counter and Cytosoft data acquisition and analysis software (version 6.02; Millipore Billerica, MA) or a Countess (Invitrogen). Three million viable cells were pelleted, washed with 1 mL of physiological saline, and resuspended in 500 µl ice-cold 80% methanol. Samples were vortexed for 1 min and immediately frozen at − 70 °C. Prior to analysis, cellular debris was pelleted, and supernatants were transferred to new tubes. Supernatants were dried down and reconstituted in 100 μl of 50 mM ammonium acetate buffer (pH 7.0), then centrifuged at 17,000 × g to remove insoluble particulates. […] Calibration curves were generated from serially diluted standards over the range from 0.25 to 10 nM.

[3] = cited from earlier work; for median trough concentration in human PBMCs: reviewer comment, 25mg TAF dose ref 12
[4] = Drug concentrations in cerebrospinal fluid (CSF); type: in vivo, Rhesus macaques; conditions: for Kp at 4 weeks: CSF and plasma, read-out: CSF-to-plasma ratio; for concentration at 4 weeks: CSF
Method: (§3) A cocktail of methanol containing internal standards was added to precipitate proteins. After a brief centrifugation and removal of protein precipitates, the supernatant was evaporated to near dryness and re-suspended with mobile phase A. An aqueous-acetonitrile mobile-phase gradient was used to elute the drugs from a C18 column (100*1 mm, Imtakt) and into the analyzer. Drug concentrations were calculated from a standard curve with a range of 0.5–2000 ng/mL using Analyst software. […] Plasma concentrations of CAB were measured weekly. Plasma concentrations of RPV were measured 4 (9 observations), 2 (2 observations), or 3 (2 observations) weeks after the previous injection. The concentrations of RPV in plasma, CSF, and tissues and the concentrations of CAB in CSF were measured at the Clinical Pharmacology and Analytical Chemistry (CPAC) Laboratory, University of North Carolina Center for AIDS Research. The LOQ for RPV in plasma is 1 ng/mL.

[5] = Extracellular TFV, FTC, CAB and RPV in rectal tissue homogenates; type: in vivo, Rhesus macaques; conditions: collected after 1 to 3 months of ART
Method: as §3

[6] = CAB and RPV concentrations in macaque plasma; type: in vivo, Rhesus macaques; conditions: for median plasma levels during the treatment phase: macaques, monthly IM CAB LA 50 mg/kg and RPV LA 200 mg/kg; for plasma concentration, individual macaques: matched to CSF samples; for concentration at 4 weeks: matched to CSF: ~ 6 months of treatment, 4 weeks after the previous CAB LA/RPV LA injection, read-out: Plasma, median (range)
Method: Plasma concentrations of CAB were measured weekly.

[7] = cited from earlier work; for plasma levels in humans: 400 mg of CAB LA or 600 mg of RPV LA every month for 48 weeks ref 21; for apparent terminal elimination half-life: humans, single intramuscular injection ref 16
[8] = design: method as in Letendre; conditions: 7-10 days after injection ref Letendre; cited from earlier work
in vivo = conditions: female, rhesus monkey
Method: as §1, §3

[9] = no reference given; cited from earlier work
[10] = no reference given; cited from earlier work; remark: listed apart in the source
[11] = rhesus monkey, in vivo
reverse transcriptase = conditions: Rectal
Method: as §2

[12] = ~ 6 months of treatment, 4 weeks after the previous CAB LA/RPV LA injection
[13] = rhesus monkey, intramuscular, 4 weeks after dosing (author rebuttal), read-out: macaque CSF values, approximate
[14] = rhesus monkey, other: oral (FTC) and intramuscular (CAB LA), ~ 6 months of treatment, 4 weeks after the previous CAB LA/RPV LA injection, read-out: CSF, median (range)
[15] = rhesus monkey, plasma, intramuscular
[16] = Tissue concentration, Axillary lymph nodes
[17] = Tissue concentration, Basal ganglia
[18] = Tissue concentration, Cerebellum
[19] = Tissue concentration, Cervical lymph nodes
[20] = Tissue concentration, Iliac lymph nodes
[21] = Tissue concentration, Inguinal lymph nodes
[22] = Tissue concentration, Mesenteric lymph nodes
[23] = Tissue concentration, Spinal cord
[24] = median concentration in brain tissues
[25] = median concentration in lymphoid tissues
[26] = median concentration in the GI tract

## CC(Cn1cnc2c(N)ncnc21)OCP(=O)(O)OP(=O)(O)OP(=O)(O)O (stereo in doubt) [TFV-DP, tenofovir diphosphate]
[1]
  Lymph nodes, median (range): 367 (142–620) fmol/10^6 cells
[2]; comparison with ref 10
  fold higher concentrations in PBMCs and lymphoid tissues than achieved with TDF: about 10
[2]
  median concentration in PBMCs during the entire treatment period: 1162 fmols/10^6 PBMCs
  median (range) concentration in PBMCs, period of full adherence: 1753 (275–2809) fmols/10^6 PBMCs
  median (range) concentration in PBMCs, period of suboptimal adherence: 329 (63–1688) fmols/10^6 PBMCs
[2]; full adherence vs humans treated with 25 mg of TAF
  times higher in PBMCs than in humans: about 3.2
[3]
  median trough concentration in human PBMCs: 523 fmol/10^6 cells

## CC(C)OC(=O)[C@H](C)N[P@](=O)(CO[C@H](C)Cn1cnc2c(N)ncnc21)Oc1ccccc1 [TAF, tenofovir alafenamide]
[3]
  fold higher concentrations of TFV-DP in lymphoid tissues and PBMCs over TDF: ~ 6

## C[C@H](Cn1cnc2c(N)ncnc21)OCP(=O)(O)O [TFV, tenofovir]
[4]; [12]
  CSF, median (range): not detected and BLQ
[5]
  Rectal tissues, extracellular drug, median (range): 0.64 (0.18–0.87) ng/mg of tissue

## Cc1cc(/C=C/C#N)cc(C)c1Nc1ccnc(Nc2ccc(C#N)cc2)n1 [RPV, rilpivirine]
[4]; rhesus monkey, intramuscular
  Kp at 4 weeks: 0.028
[4]; [13]
  concentration at 4 weeks: ~4 ng/mL
[4]; [14]
  concentration at 4 weeks: 4.06 ng/mL
[4]; rhesus monkey, in vivo
  times CSF-to-plasma ratio higher than for CAB: 4
[4]; [12]
  CSF, median (range): 4.06 (2.93–4.52) ng/mL
[6]
  median plasma levels during the treatment phase: 108 ng/mL
  plasma concentration, individual macaques: 143 ng/mL and 152 ng/mL and 150 ng/mL and 153 ng/mL
[6]; [15]
  persistence in plasma after the last dose: 2 years
  concentration at 4 weeks: 151 ng/mL
[5]
  Rectal tissues, extracellular drug, median (range): 0.45 (0.12–1.1) ng/mg of tissue
[7]
  plasma levels in humans: 97.5 ng/mL
  apparent terminal elimination half-life: 91 to 196 days
[8]
  human CSF levels: ~ 2 ng/ml
In vivo; 3 weeks
  times brain tissue concentration above the in vitro EC90: ~ 500
  times median brain tissue concentration higher than that of CAB: 5.8
In vivo; [16]
  concentration at 3 weeks: 773 ng/g
In vivo; [17]
  concentration at 3 weeks: 340 ng/g
In vivo; Tissue concentration, Cecum
  concentration at 3 weeks: 670 ng/g
In vivo; [18]
  concentration at 3 weeks: 259 ng/g
In vivo; [19]
  concentration at 3 weeks: 1770 ng/g
In vivo; Tissue concentration, Duodenum
  concentration at 3 weeks: 666 ng/g
In vivo; Tissue concentration, Ileum
  concentration at 3 weeks: 518 ng/g
In vivo; [20]
  concentration at 3 weeks: 736 ng/g
In vivo; [21]
  concentration at 3 weeks: 692 ng/g
In vivo; Tissue concentration, Jejunum
  concentration at 3 weeks: 697 ng/g
In vivo; [22]
  concentration at 3 weeks: 28800 ng/g
In vivo; Tissue concentration, Rectum
  concentration at 3 weeks: 447 ng/g
In vivo; [23]
  concentration at 3 weeks: 437 ng/g
In vivo; [24]
  concentration at 3 weeks: 340 ng/g
In vivo; [25]
  concentration at 3 weeks: 773 ng/g
In vivo; [26]
  concentration at 3 weeks: 666 ng/g
[9]
  protein-adjusted 90% inhibitory concentration (PA-IC90): 12 ng/mL
[10]
  in vitro EC90: 0.66 ng/mL

## Nc1nc(=O)n([C@@H]2CS[C@H](COP(=O)(O)OP(=O)(O)OP(=O)(O)O)O2)cc1F [FTC-TP, emtricitabine triphosphate]
[11]
  Rectal tissues, intracellular, median (range): BLQ (BLQ-17)
Reverse transcriptase
  Panel F ratio dCTP/FTC-TP: 82.22 and 103.48
[2]
  median concentration in PBMCs during the entire treatment period: 553 fmols/10^6 PBMCs
  median (range) concentration in PBMCs, period of full adherence: 573 (333–1528) fmols/10^6 PBMCs
  median (range) concentration in PBMCs, period of suboptimal adherence: 306 (undetectable-964) fmols/10^6 PBMCs
[2]; full adherence vs humans treated with 300 mg of FTC
  fold lower in PBMCs than in humans: approximately 3.6
[3]; humans treated with 25 mg of TAF (TFV-DP) or 300 mg of FTC (FTC-TP) ref 12
  concentration in human PBMCs: 2,060 fmols/10^6 PBMCs
[3]; reviewer comment ref 12
  median peak concentration in human PBMCs: 5149 fmol/10^6 cells
[3]
  median trough concentration in human PBMCs: 2060 fmol/10^6 cells

## C[C@H]1CO[C@@H]2Cn3cc(C(=O)NCc4ccc(F)cc4F)c(=O)c(O)c3C(=O)N12 [CAB, cabotegravir]
[4]; rhesus monkey, intramuscular
  Kp at 4 weeks: 0.006
[4]; [13]
  concentration at 4 weeks: ~6 ng/mL
[4]; [14]
  concentration at 4 weeks: 5.95 ng/mL
[4]; [12]
  CSF, median (range): 5.95 (4.77–7.43) ng/mL
[6]
  median plasma levels during the treatment phase: 2400 ng/mL
  plasma concentration, individual macaques: 1040 ng/mL and 1050 ng/mL and 630 ng/mL and 480 ng/mL
[6]; [15]
  decline of plasma concentration below the PA-IC90 after the last injection: declined below the PA-IC90 two months later
  times plasma level above the PA-IC90 during treatment: 13
  concentration at 4 weeks: 835 ng/mL
[5]
  Rectal tissues, extracellular drug, median (range): 0.60 (0.25–2.65) ng/mg of tissue
[7]
  plasma levels in humans: 2740 ng/mL
  apparent terminal elimination half-life: 39 to 80 days
[8]
  human CSF levels: ~10 ng/mL
In vivo; 3 weeks
  times brain tissue concentration above the in vitro EC90: ~ 100
In vivo; [16]
  concentration at 3 weeks: 412 ng/g
In vivo; [17]
  concentration at 3 weeks: 26 ng/g
In vivo; Tissue concentration, Cecum
  concentration at 3 weeks: 1370 ng/g
In vivo; [18]
  concentration at 3 weeks: 58 ng/g
In vivo; [19]
  concentration at 3 weeks: 583 ng/g
In vivo; Tissue concentration, Duodenum
  concentration at 3 weeks: 569 ng/g
In vivo; Tissue concentration, Ileum
  concentration at 3 weeks: 695 ng/g
In vivo; [20]
  concentration at 3 weeks: 1280 ng/g
In vivo; [21]
  concentration at 3 weeks: 975 ng/g
In vivo; Tissue concentration, Jejunum
  concentration at 3 weeks: 643 ng/g
In vivo; [22]
  concentration at 3 weeks: 23700 ng/g
In vivo; Tissue concentration, Rectum
  concentration at 3 weeks: 773 ng/g
In vivo; [23]
  concentration at 3 weeks: 288 ng/g
In vivo; [24]
  concentration at 3 weeks: 58 ng/g
In vivo; [25]
  concentration at 3 weeks: 975 ng/g
In vivo; [26]
  concentration at 3 weeks: 695 ng/g
[9]
  protein-adjusted 90% inhibitory concentration (PA-IC90): 166 ng/mL
[10]
  in vitro EC90: 0.34 ng/mL

## Nc1nc(=O)n([C@@H]2CS[C@H](CO)O2)cc1F [FTC, emtricitabine]
[4]; [14]
  concentration at 4 weeks: 2.36 ng/mL
[4]; [12]
  CSF, median (range): 2.36 (BLQ-2.65) ng/mL
[5]
  Rectal tissues, extracellular drug, median (range): 1.48 (0.22–2.16) ng/mg of tissue
